# Test results reported in patent US8247211B2, “Glycopeptide antibiotics” (American Cyanamid Company, priority 2001, dated 2012).
# Tests used:
# Assay in all cases: In vitro antibacterial evaluation: minimum inhibitory concentration (MIC), broth dilution method
# Assay type in all cases: cell-based
# [1] = tested on: Enterococcus sp.; conditions: 18 hours at 35° C.
# Method in brief: (§1)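 NCCLS M7-A2 broth dilution with Mueller-Hinton II, testing 64-0.06 μg/mL antibiotic against 5×10^5 CFU/mL inocula. Test strains include recent methicillin-, penicillin- or vancomycin-resistant clinical isolates. MIC is the lowest concentration preventing growth.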
# [2] = tested on: Escherichia coli; conditions: 18 hours at 35° C.
# Method in brief: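 An MIC is reported for each organism as the least concentration giving inhibition, using broth dilution over 64-0.06 μg/mL with a 5×10^5 CFU/mL inoculum.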
# [3] = tested on: Staphylococcus sp.
# Method in brief: as §1
# [4] = tested on: Streptococcus sp.; conditions: 18 hours at 35° C.
# Method in brief: as §1
# [5] = broth dilution, inoculum 5×10^5 CFU/mL
smiles,measurement,setting,value
"CC(c1ccccc1)C1NC(=O)CNC(=O)C(CO)NC(=O)C(C(O)C2CNC(=N)N2C2OC(CO)C(O)C(O)C2O)NC(=O)C(C(O)C2CNC(=N)N2)NC(=O)C(Cc2ccc(OC3OC(CO)C(OC4OC5COC(c6ccccc6)OC5C(O)C4O)C(O)C3O)c(I)c2)NC1=O (stereo not drawn) [Example 196, Cyclo[glycyl-β-methylphenylalanyl-O-[4-O-(4,6-O-benzylidenehexopyranosyl)hexopyranosyl]-3-iodotyrosyl-3-(2-iminoimidazolidin-4-yl)seryl-3-(3-hexopyranosyl-2-iminoimidazolidin-4-yl)-serylseryl]]",MIC Enterococcus avium (GC 4558),[1]; Enterococcus avium (GC 4558),32 µg/mL
same,MIC Enterococcus faecalis (ATCC 29212),[1]; Enterococcus faecalis (ATCC 29212),>64 µg/mL
same,MIC Enterococcus faecalis (GC 2242),[1]; Enterococcus faecalis (GC 2242),>64 µg/mL
same,MIC Enterococcus faecalis (GC 2691),[1]; Enterococcus faecalis (GC 2691),>64 µg/mL
same,MIC Enterococcus faecalis (GC 3059),[1]; Enterococcus faecalis (GC 3059),>64 µg/mL
same,MIC Enterococcus faecalis (GC 4552),[1]; Enterococcus faecalis (GC 4552),>64 µg/mL
same,MIC Enterococcus faecalis (GC 4553),[1]; Enterococcus faecalis (GC 4553),64 µg/mL
same,MIC Enterococcus faecalis (GC 4554),[1]; Enterococcus faecalis (GC 4554),>64 µg/mL
same,MIC Enterococcus faecalis (GC 6189),[1]; Enterococcus faecalis (GC 6189),>64 µg/mL
same,MIC Enterococcus faecium (GC 2243),[1]; Enterococcus faecium (GC 2243),64 µg/mL
same,MIC Enterococcus faecium (GC 4556),[1]; Enterococcus faecium (GC 4556),>64 µg/mL
same,MIC Enterococcus faecium (GC 4557),[1]; Enterococcus faecium (GC 4557),8 µg/mL
same,MIC Enterococcus avium (GC 4558),[1]; [5],32 µg/mL
same,MIC Enterococcus faecalis (ATCC 29212),[1]; [5],>64 µg/mL
same,MIC Enterococcus faecalis (GC 2242),[1]; [5],>64 µg/mL
same,MIC Enterococcus faecalis (GC 2691),[1]; [5],>64 µg/mL
same,MIC Enterococcus faecalis (GC 3059),[1]; [5],>64 µg/mL
same,MIC Enterococcus faecalis (GC 4552),[1]; [5],>64 µg/mL
same,MIC Enterococcus faecalis (GC 4553),[1]; [5],64 µg/mL
same,MIC Enterococcus faecalis (GC 4554),[1]; [5],>64 µg/mL
same,MIC Enterococcus faecalis (GC 6189),[1]; [5],>64 µg/mL
same,MIC Enterococcus faecium (GC 2243),[1]; [5],64 µg/mL
same,MIC Enterococcus faecium (GC 4556),[1]; [5],>64 µg/mL
same,MIC Enterococcus faecium (GC 4557),[1]; [5],8 µg/mL
same,MIC Escherichia coli (ATCC 25922),[2]; Escherichia coli (ATCC 25922),64 µg/mL
same,MIC Escherichia coli (GC 4559),[2]; Escherichia coli (GC 4559),64 µg/mL
same,MIC Escherichia coli (GC 4560),[2]; Escherichia coli (GC 4560),8 µg/mL
same,MIC Staphylococcus aureus (ATCC 29213),[3]; strain ATCC 29213,>64 µg/mL
same,MIC Staphylococcus aureus (GC 1131),[3]; strain GC 1131,>64 µg/mL
same,MIC Staphylococcus aureus (GC 3051),[3]; strain GC 3051,>64 µg/mL
same,MIC Staphylococcus aureus (GC 3053),[3]; strain GC 3053,>64 µg/mL
same,MIC Staphylococcus aureus (GC 4541),[3]; strain GC 4541,64 µg/mL
same,MIC Staphylococcus aureus (GC 4542),[3]; strain GC 4542,>64 µg/mL
same,MIC Staphylococcus aureus-SMITH (GC 4543),[3]; strain GC 4543,>64 µg/mL
same,MIC Staphylococcus aureus (GC 4544),[3]; strain GC 4544,>64 µg/mL
same,MIC Staphylococcus aureus (GC 4545),[3]; strain GC 4545,64 µg/mL
same,MIC Staphylococcus haemolyticus (GC 4546),[3]; strain GC 4546,32 µg/mL
same,MIC Coagulase Negative Staphylococcus (GC 4547),[3]; strain GC 4547,32 µg/mL
same,MIC Coagulase Negative Staphylococcus (GC 4548),[3]; strain GC 4548,64 µg/mL
same,MIC Coagulase Negative Staphylococcus (GC 4549),[3]; strain GC 4549,64 µg/mL
same,MIC Coagulase Negative Staphylococcus (GC 4551),[3]; strain GC 4551,>64 µg/mL
same,MIC Coagulase Negative Staphylococcus (GC 6257),[3]; strain GC 6257,64 µg/mL
same,MIC Streptococcus agalactiae (GC 4564),[4]; Streptococcus agalactiae (GC 4564),>64 µg/mL
same,MIC Streptococcus pneumoniae (ATCC 6301),[4]; Streptococcus pneumoniae (ATCC 6301),64 µg/mL
same,MIC Streptococcus pneumoniae (GC 1894),[4]; Streptococcus pneumoniae (GC 1894),64 µg/mL
same,MIC Streptococcus pneumoniae (GC 4565),[4]; Streptococcus pneumoniae (GC 4565),64 µg/mL
same,MIC Streptococcus pyogenes (GC 4563),[4]; Streptococcus pyogenes (GC 4563),32 µg/mL
same,MIC Streptococcus agalactiae (GC 4564),[4]; [5],>64 µg/mL
same,MIC Streptococcus pneumoniae (ATCC 6301),[4]; [5],64 µg/mL
same,MIC Streptococcus pneumoniae (GC 1894),[4]; [5],64 µg/mL
same,MIC Streptococcus pneumoniae (GC 4565),[4]; [5],64 µg/mL
same,MIC Streptococcus pyogenes (GC 4563),[4]; [5],32 µg/mL
